According to patent US20250188030A1, “Biphenyl and Phenylpyridine Compounds” (Pfizer Inc., priority 2023, published 2025):
Read-outs that look alike come from different tables or passages of the source.

Key:
H3K9AC (HT1080 cells) = assay: H3K9AC Sandwich ELISA Assay in HT1080 cells (KAT2A primary cell-based screening assay); parameters: species or system Human
In short: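 Acetylated H3K9 quantified by luminescent sandwich ELISA (total H3 capture, H3K9ac detection) on HCl lysates of HT1080 cells. Cells had 24 h compound exposure at 37 °C, top concentration 10 µM, 10-point 3-fold series, 0.1% DMSO; IC50 from four-parameter fitting.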

KAT2B = KAT2B (Homo sapiens (Human), UniProt Q92831); assay: KAT2B acetyltransferase biochemical assay (RapidFire mass spectrometry, AcCoA to CoA)
KAT2A = KAT2A (Homo sapiens (Human), UniProt Q92830); assay: KAT2A acetyltransferase biochemical assay (RapidFire mass spectrometry, AcCoA to CoA)
MM.1S cells = assay: MM1.S 10 Day Proliferation Assay (CellTiter-Glo); type: cell-based, Human; conditions: Homo sapiens, MM1.S, 240 h
In short: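 MM.1S cells, 500/well in ultra-low-attachment plates, were pre-incubated 16 h, then exposed to a 10-point 1:3 dilution series (top 10 μM final, 0.1% DMSO) for 10 days at 37 °C, with compound-containing medium refreshed at day 5. Viability was read by CellTiter-Glo luminescence; IC50 came from four-parameter fit.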

[1] = Homo sapiens, HT-1080, H3K9AC sandwich ELISA
[2] = read-out: KAT2B Ki at 1 μM AcCoA, 1 μM AcCoA, 5 μM H3 1-21 peptide, 0.5 nM KAT2B, 90-minute reaction
[3] = read-out: KAT2A Ki at 1 μM AcCoA, 5 μM H3 1-21 peptide, 0.5 nM KAT2A, 90-minute reaction

Sequence of KAT2B (Q92831 2-832): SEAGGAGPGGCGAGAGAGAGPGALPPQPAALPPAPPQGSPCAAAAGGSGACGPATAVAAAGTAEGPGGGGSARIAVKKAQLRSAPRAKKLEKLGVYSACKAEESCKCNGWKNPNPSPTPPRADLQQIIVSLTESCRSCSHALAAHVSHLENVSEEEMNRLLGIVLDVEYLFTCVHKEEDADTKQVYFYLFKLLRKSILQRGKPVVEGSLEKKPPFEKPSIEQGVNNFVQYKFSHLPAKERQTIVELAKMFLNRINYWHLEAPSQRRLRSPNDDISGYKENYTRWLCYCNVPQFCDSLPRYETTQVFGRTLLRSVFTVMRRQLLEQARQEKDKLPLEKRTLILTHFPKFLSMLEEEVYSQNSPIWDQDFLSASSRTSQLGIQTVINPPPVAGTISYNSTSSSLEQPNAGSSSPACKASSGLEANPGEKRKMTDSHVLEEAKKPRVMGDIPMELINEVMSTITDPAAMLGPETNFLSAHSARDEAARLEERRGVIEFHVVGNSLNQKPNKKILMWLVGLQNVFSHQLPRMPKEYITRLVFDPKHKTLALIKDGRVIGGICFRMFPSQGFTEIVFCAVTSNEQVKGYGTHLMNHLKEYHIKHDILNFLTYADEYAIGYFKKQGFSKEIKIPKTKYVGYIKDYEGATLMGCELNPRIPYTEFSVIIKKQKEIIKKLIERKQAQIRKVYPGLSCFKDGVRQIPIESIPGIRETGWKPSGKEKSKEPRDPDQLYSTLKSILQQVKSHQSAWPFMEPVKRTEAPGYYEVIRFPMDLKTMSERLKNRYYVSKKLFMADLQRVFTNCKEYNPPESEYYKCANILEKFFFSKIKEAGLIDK
Sequence of KAT2A (Q92830 whole entry): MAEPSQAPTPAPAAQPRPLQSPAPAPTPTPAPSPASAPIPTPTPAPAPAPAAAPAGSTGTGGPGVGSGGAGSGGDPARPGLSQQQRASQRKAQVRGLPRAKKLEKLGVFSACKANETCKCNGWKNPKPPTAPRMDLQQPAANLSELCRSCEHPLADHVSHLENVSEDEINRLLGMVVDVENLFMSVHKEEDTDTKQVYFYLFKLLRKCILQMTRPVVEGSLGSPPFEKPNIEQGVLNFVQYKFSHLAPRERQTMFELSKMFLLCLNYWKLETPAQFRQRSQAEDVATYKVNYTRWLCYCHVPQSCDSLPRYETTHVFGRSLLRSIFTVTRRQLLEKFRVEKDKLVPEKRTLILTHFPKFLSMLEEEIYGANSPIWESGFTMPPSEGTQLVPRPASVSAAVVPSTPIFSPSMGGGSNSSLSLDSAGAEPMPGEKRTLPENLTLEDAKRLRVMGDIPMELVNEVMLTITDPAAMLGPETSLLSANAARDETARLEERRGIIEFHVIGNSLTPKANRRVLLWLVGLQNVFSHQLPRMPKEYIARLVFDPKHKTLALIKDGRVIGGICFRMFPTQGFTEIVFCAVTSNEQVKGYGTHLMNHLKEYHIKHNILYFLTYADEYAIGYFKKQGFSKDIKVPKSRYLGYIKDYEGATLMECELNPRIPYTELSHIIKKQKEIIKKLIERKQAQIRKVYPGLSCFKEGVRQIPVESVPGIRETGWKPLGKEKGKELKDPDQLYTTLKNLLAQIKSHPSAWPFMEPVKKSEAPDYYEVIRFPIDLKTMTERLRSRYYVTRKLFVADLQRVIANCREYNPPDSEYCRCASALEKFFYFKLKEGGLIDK

Compound	IC50 (H3K9AC (HT1080 cells); [1]) [nM]	Ki (KAT2B; [2]) [nM]	Ki (KAT2A; [3]) [nM]	IC50 (MM.1S cells) [nM]	IC50 (H3K9AC (HT1080 cells); H3K9AC sandwich ELISA) [nM]	Ki (KAT2B) [nM]	Ki (KAT2A; KAT2A Ki at 1 μM AcCoA, 5 μM H3 1-21 peptide, 0.5 nM KAT2A, 90-minute reaction) [nM]
CN1CC(C)(C)C[C@H]1C(=O)N[C@@H]1CC[C@@H](Oc2cccc(C(=O)O)c2-c2cccc(F)c2C2CCC2)C1 (atropisomer, axis not shown) [Example H3, (1ψ)-2′-cyclobutyl-3′-fluoro-6-({(1R,3R)-3-[(1,4,4-trimethyl-L-prolyl)amino]cyclopentyl}oxy)[1,1′-biphenyl]-2-carboxylic acid]	57.2	32.9	18.3	219			
CN1CC(C)(C)C[C@H]1C(=O)N[C@@H]1CC[C@@H](Oc2cccc(CC(=O)O)c2-c2ccccc2C2CCC2)C1 (atropisomer, axis not shown) [Example H6, [(1ψ)-2′-cyclobutyl-6-({(1R,3R)-3-[(1,4,4-trimethyl-L-prolyl)amino]cyclopentyl}oxy)[1,1′-biphenyl]-2-yl]acetic acid]		63.6		679	84.2		
CC1(C)C[C@H](C(=O)N[C@@H]2CC[C@@H](Oc3cccc(C(=O)O)c3-c3cccc(F)c3C3CCC3)C2)CN1 (atropisomer, axis not shown) [Example H9, (1ψ)-2′-cyclobutyl-6-{[(1R,3R)-3-{[(3ξ)-5,5-dimethylpyrrolidine-3-carbonyl]amino}cyclopentyl]oxy}-3′-fluoro[1,1′-biphenyl]-2-carboxylic acid]	90	115	33				
CN1CC(C)(C)C[C@H]1C(=O)N[C@@H]1CC[C@@H](Oc2cccc(C(=O)NS(=O)(=O)N3CC(F)C3)c2-c2cccc(F)c2C2CCC2)C1 (atropisomer, axis not shown) [Example I12, N-[(1R,3R)-3-({(1ψ)-2′-cyclobutyl-3′-fluoro-6-[(3-fluoroazetidine-1-sulfonyl)carbamoyl][1,1′-biphenyl]-2-yl}oxy)cyclopentyl]-1,4,4-trimethyl-L-prolinamide]	6.43	20.3	20.6	123			
CN1CC2(CCOCC2)C[C@H]1C(=O)N[C@@H]1CC[C@@H](Oc2ccc(C(=O)O)cc2-c2ccccc2C2CCC2)C1 (single isomer, unassigned) [Example D2]	30.6					46.8	70.3
CCn1cc(-c2ccc(O[C@@H]3CC[C@@H](NC(=O)[C@@]4(F)CNC5(CCC5)C4)C3)c(-c3cccc(F)c3C3CCC3)c2)c(C(=O)O)n1 (single isomer, unassigned) [Example J13]	10.2	0.62	0.14				
CC(C)c1ccccc1-c1cc(C(=O)O)ccc1O[C@@H]1CC[C@@H](NC(=O)[C@@H]2CC(C)(C)CN2C)C1 [Example D5, 2′-(propan-2-yl)-6-({(1R,3R)-3-[(1,4,4-trimethyl-L-prolyl)amino]cyclopentyl}oxy)[1,1′-biphenyl]-3-carboxylic acid]	30.4	58.8	12.8				

Further lines, results first:

IC50 (H3K9AC (HT1080 cells); [1]) [nM]	Ki (KAT2B; [2]) [nM]	Ki (KAT2A; [3]) [nM]	IC50 (MM.1S cells) [nM]	IC50 (H3K9AC (HT1080 cells); H3K9AC sandwich ELISA) [nM]	Ki (KAT2B) [nM]	Ki (KAT2A; KAT2A Ki at 1 μM AcCoA, 5 μM H3 1-21 peptide, 0.5 nM KAT2A, 90-minute reaction) [nM]	Compound
7.67	1.21	0.54	92.4				CC(C)(C(=O)O)c1ccc(O[C@@H]2CC[C@@H](NC(=O)[C@]3(F)CNC4(CCCC4)C3)C2)c(-c2cccc(F)c2C2CCC2)c1 (single isomer, unassigned) [Example A6]
	2.43	1.39	144	13.4			CC1(C)CNC[C@](F)(C(=O)N[C@@H]2CC[C@@H](Oc3ccc(C(C)(C)C(=O)O)cc3-c3cccc(F)c3C3CCC3)C2)C1 (single isomer, unassigned) [Example A16]
6.36	2.85	0.57	60				CC1(C)CNC[C@](F)(C(=O)N[C@@H]2CC[C@@H](Oc3ccc(CC(=O)O)cc3-c3cccc(F)c3C3CCC3)C2)C1 (single isomer, unassigned) [Example A23]
89.7	14.8	2.75					CC1(C)C[C@](F)(C(=O)N[C@@H]2CC[C@@H](Oc3ccc(C(C)(C)C(=O)NS(C)(=O)=O)cc3-c3cccc(F)c3C3CCC3)C2)CN1 (single isomer, unassigned) [Example C6]
